The text below walks through data of patent US4328334A, “11-Aza-10-deoxo-10-dihydroerythromycin A and derivatives thereof as well as a process for their preparation” (PLIVA Pharmaceutical and Chemical Works, priority 1979, dated 1982).

The structures appear in SMILES notation. ≈ marks a conversion by molar mass, not a printed value.

Data set [1] deals with Pseudomonas aeruginosa NCTC 10490. Nature of the data set: in vitro minimum inhibitory concentration, Pseudomonas aeruginosa NCTC 10490. The class given is cell-based. Particulars: NCTC10490; in vitro, Pseudomonas aeruginosa NCTC 10490; read-out: minimum inhibitory concentrations (MIC).
Data set [2] deals with Corynebacterium xerosis NCTC 9755. Description: in vitro minimum inhibitory concentration, Corynebacterium xerosis NCTC 9755. The class given is cell-based. Particulars: NCTC9755; in vitro, Corynebacterium xerosis NCTC 9755; read-out: minimum inhibitory concentrations (MIC).
The subject of data set [3] is Micrococcus flavus ATCC 10240. Description: in vitro minimum inhibitory concentration, Micrococcus flavus ATCC 10240. The class given is cell-based. Particulars: ATCC10240; in vitro, Micrococcus flavus ATCC 10240; read-out: minimum inhibitory concentrations (MIC).
Data set [4] concerns Escherichia coli ATCC 10536. Nature of the data set: in vitro minimum inhibitory concentration, Escherichia coli ATCC 10536. The format is cell-based. Particulars: ATCC10536, read-out: minimum inhibitory concentrations (MIC).
In data set [5] the test system is albino mice. Description: acute i.v. toxicity in albino mice (Litchfield-Wilcoxon). The note with it: mouse, in vivo, iv.
Experiment in data set [6]: as above
Particulars: mouse, in vivo, iv; acute i.v., albino mice.

For data set [7], the system named is Klebsiella pneumoniae ATCC 10031. Nature of the data set: in vitro minimum inhibitory concentration, Klebsiella pneumoniae ATCC 10031. The class given is cell-based. The note with it: ATCC10031; in vitro, Klebsiella pneumoniae ATCC 10031; read-out: minimum inhibitory concentrations (MIC).
The test system of data set [8] is Shigella flexneri II-1819/C. Nature of the data set: in vitro minimum inhibitory concentration, Shigella flexneri II-1819/C. The class given is cell-based. The note with it: II1819/C, read-out: minimum inhibitory concentrations (MIC). As to the method:
In order to examine the antibacterial action, some new compounds were tested in vitro on a series of gram-positive and gram-negative micro-organisms. The results are shown in Table 1 as minimum inhibitory concentrations (MIC) in mcg/ml in comparision with erythromycin A erythromycin A oxime.

Data set [9] relates to Staphylococcus aureus ATCC 6538-P. Nature of the data set: stability in acid medium: MIC after exposure to 1 N HCl. The class given is cell-based. The note with it: for MIC: ATCC6538, pH 1.2, Staphylococcus aureus ATCC 6538-P.
Data set [10] deals with Bacillus subtilis ATCC 6633. Description: in vitro minimum inhibitory concentration, Bacillus subtilis ATCC 6633. The format is cell-based. Particulars: ATCC6633; in vitro, Bacillus subtilis ATCC 6633; read-out: minimum inhibitory concentrations (MIC).
Data set [11] relates to Streptococcus faecalis ATCC 8043. Nature of the data set: in vitro minimum inhibitory concentration, Streptococcus faecalis ATCC 8043. The note with it: Enterococcus faecalis, ATCC8043; in vitro, Streptococcus faecalis ATCC 8043; read-out: minimum inhibitory concentrations (MIC). The class given is cell-based.
Data set [12] concerns Staphylococcus aureus ATCC 6538-P. Nature of the data set: in vitro minimum inhibitory concentration, Staphylococcus aureus ATCC 6538-P. The class given is cell-based. Particulars: ATCC6538; in vitro, Staphylococcus aureus ATCC 6538-P; read-out: minimum inhibitory concentrations (MIC).
For data set [13], the system named is Sarcina lutea ATCC 9341. Nature of the data set: in vitro minimum inhibitory concentration, Sarcina lutea ATCC 9341. The format is cell-based. Particulars: Micrococcus luteus, ATCC9341, read-out: minimum inhibitory concentrations (MIC).
The test system of data set [14] is Brucella bronchiseptica ATCC 4617. Description: microbe, parasite or virus in culture. The note with it: Bordetella bronchiseptica, ATCC4617, read-out: minimum inhibitory concentrations (MIC). The class given is cell-based.
In data set [15] the test system is Bacillus cereus var. mycoides ATCC 11778. Description: microbe, parasite or virus in culture. The format is cell-based. Particulars: ATCC11778, read-out: minimum inhibitory concentrations (MIC).
Data set [16] has as its system Salmonella panama. Nature of the data set: in vitro minimum inhibitory concentration, Salmonella panama. The class given is cell-based. The note with it: Salmonella enterica; in vitro, Salmonella panama; read-out: minimum inhibitory concentrations (MIC).
Data set [17] relates to Staphylococcus epidermidis ATCC 12228. Nature of the data set: in vitro minimum inhibitory concentration, Staphylococcus epidermidis ATCC 12228. The class given is cell-based. Particulars: ATCC12228; in vitro, Staphylococcus epidermidis ATCC 12228; read-out: minimum inhibitory concentrations (MIC).
The mark [18] stands for this setting: 1 N HCl, pH 1.2, 30 minutes to 6 hours.

As to `CC[C@H]1OC(=O)[C@H](C)[C@@H](O[C@H]2C[C@@](C)(OC)[C@@H](O)[C@H](C)O2)[C@H](C)[C@@H](O[C@@H]2O[C@H](C)C[C@H](N(C)C)[C@H]2O)[C@](C)(O)C[C@@H](C)CN[C@H](C)[C@@H](O)[C@]1(C)O` [Compound I, 11-aza-4-0-cladinosyl-6-0-desosaminyl-15-ethyl-7,13,14-trihydroxy-3,5,7,9,12,14-hexamethyloxacyclopentadecane-2-one], the MIC is 50 µg/mL (≈ 68 µM) in data set [1]; 1 µg/mL (≈ 1.36 µM) in data set [2]; 0.05 µg/mL (≈ 0.068 µM) in data set [3]; 10 µg/mL (≈ 13.6 µM) in data set [4]; 10 µg/mL (≈ 13.6 µM) in data set [7]; 10 µg/mL (≈ 13.6 µM) in [8]. In addition, the MIC came out at 0.5 µg/mL (≈ 0.68 µM) in data set [9] (exposure time 0 hours); 0.5 µg/mL (≈ 0.68 µM) in data set [9] (exposure time 1/2 hour, 1 N HCl); 0.5 µg/mL (≈ 0.68 µM) in data set [9] (exposure time 1 hour, 1 N HCl); 1 µg/mL (≈ 1.36 µM) in [9] (exposure time 2 hours, 1 N HCl); 1 µg/mL (≈ 1.36 µM) in data set [9] (exposure time 3 hours, 1 N HCl); 1 µg/mL (≈ 1.36 µM) in data set [9] (exposure time 6 hours, 1 N HCl). For the same molecule, the MIC amounted to 5 µg/mL (≈ 6.8 µM) in data set [10]; 0.5 µg/mL (≈ 0.68 µM) in data set [11]; 0.5 µg/mL (≈ 0.68 µM) in [12]; 0.05 µg/mL (≈ 0.068 µM) in [13]; 1 µg/mL (≈ 1.36 µM) in [14]; 0.5 µg/mL (≈ 0.68 µM) in data set [15]. In addition, the MIC in data set [16] was found to be 50 µg/mL (≈ 68 µM); in [17], 0.5 µg/mL (≈ 0.68 µM). The “acute i.v. toxicity compared with erythromycin A oxime” value in data set [5] is “less toxic that the starting erythromycin A oxime”. For the same molecule, the median lethal dose (LD50) (as a rule, the dose at which mortality reaches 50%) in [6] amounted to 110 mg/kg. Also, the “stability in acid medium compared with erythromycin A” value in data set [9] (setting [18]) is “significantly more stable than erythromycin A”. In addition, in data set [9] (setting [18]), the “stability in acid medium compared with erythromycin A oxime” value was “within the range of that of the starting antibioticum erythromycin A oxime”.
